Test results published in US20070166299A1, “TREATMENT FOR EMBOLIC STROKE” (priority 2005, published 2007).
Like-named read-outs stand apart in the source and are kept apart here.

Key:
[1] = system: small clot embolic strokes in rabbits; experiment: rabbit small clot embolic stroke model (RSCEM), quantal analysis of behavior; format: in vivo
Excerpt: The invention used a rabbit small clot embolic stroke model (RSCEM) that reproduces many facets of human AIS including a well-defined clinical endpoint. The RSCEM utilizes administration of a suspension of small blood clots to induce strokes, and behavioral deficits that can be measured quantitatively. Moreover, the RSCEM is useful to conduct studies testing the effects of single drugs or drug combinations such as a neuroprotective agent (e.g., NXY-059) plus a thrombolytic (Tenecteplase, Alteplase, Desmoteplase and the like). Since it is likely that a drug combination will be used for patient management it is important to determine whether there are any interactions (positive or negative) between the compounds when administered following embolic strokes.
Methods: Male New Zealand white rabbits were anesthetized using halothane (5% induction, 2% maintenance by facemask), the bifurcation of the right carotid artery was exposed and the external carotid was ligated just distal to the bifurcation, where a catheter was inserted into the common carotid and secured with ligatures. The incision was closed around the catheter with the distal ends left accessible outside the neck; the catheter was filled with heparinized saline and plugged with an injection cap. Rabbits were allowed to recover from anesthesia for a minimum of 3 h until they awoke and behaved normally.
For the RSCEM, microclots were prepared from blood drawn from a donor rabbit and allowed to clot at 37° C. All rabbits in the study received injections of the same sized microclots. For embolization, clot particles were rapidly injected through the carotid catheter and both the syringe and catheter were flushed with 5 ml of normal saline.
Treatment Regimens: (A) Dose-Response Curve: NXY-059 was administered IV at a dose of 0.1-100 mg/kg infused over 30 min beginning 1 hour following embolization. (B) Therapeutic Window: NXY-059 (100 mg/kg) was given beginning 1, 3 or 6 hours following embolization. (C) Tenecteplase Dosing: Tenecteplase was administered IV at a dose of 0.9 mg/kg as a bolus injection given over one minute was administered 1 or 6 hours following embolization. (D) Combination studies: NXY-059 was administered IV at a dose of 100 mg/kg infused over 30 min and Tenecteplase was administered IV at a dose of 0.9 mg/kg beginning 1 or 6 hours following embolization.
Quantal Dose-Response Analysis: For the RSCEM, a quantal dose-response data analysis technique was used. A wide range of lesion volumes is induced to generate both normal and abnormal animals. Using 3 or more different doses of microclots generated each quantal analysis curve. […] Each animal is rated as either normal or abnormal (including dead animals), and inter-rater variability is very low (<5%). […] With this simple rating system, the composite result for a group of animals is quite reproducible. The P50 values are then calculated. These parameters are measures of the amount of microclots (in mg) that produce neurologic dysfunction in 50% of a group of animals. A separate curve is generated for each treatment condition that was tested. The data were analyzed using the t-test, which included the Bonferroni correction where appropriate.
Using the RSCEM model as described above male New Zealand white rabbits weighing 2.2-2.6 Kg were anesthetized and a catheter was inserted into the common carotid artery through which microclots were injected. Briefly, the bifurcation of one carotid artery was exposed and the external carotid was ligated just distal to the bifurcation. A catheter was inserted into the common carotid and secured with ligatures. The incision was closed around the catheter so that the distal end was accessible outside the animal's neck. The catheter was then filled with heparinized saline and plugged with an injection cap. Rabbits were allowed to recover from anesthesia until they were awake and behaving normally. […]

[2] = cited from earlier work
[3] = system: spinal cord ischemia induced by temporary occlusion of the infrarenal aorta; experiment: rabbit reversible spinal cord ischemia model (RSCIM); format: in vivo
Experimental: In a rabbit reversible spinal cord ischemia model (RSCIM). ABHS was administered (25 mg/kg) intravenously (i.v.) 5 or 30 min following the start of occlusion to groups of rabbits exposed to ischemia induced by temporary occlusion of the infrarenal aorta. The group P50 represents the duration of ischemia (min) associated with a 50% probability of resultant permanent paraplegia.

[4] = ABHS 25 mg/kg, 60 min following embolization
[5] = ABHS 25 mg/kg, 180 min following embolization
[6] = ABHS 25 mg/kg i.v., 5 min post-occlusion

With `O=C(C=Cc1ccc(O)c(O)c1)OC1CC(O)(C(=O)O)CC(O)C1O` (stereo not drawn) [CGA, 3-[[3-(3,4-Dihydroxyphenyl)-1-oxo-2-propenyl]oxy] 1,4,5-trihydroxycyclohexanecarboxylic acid] the P50 ([1]; CGA 50 mg/kg IV, 5 minutes following embolization, behavior 24 hours) was 3.61 ± 0.52 mg, the P50 ([1]; CGA 50 mg/kg single bolus, 1 hour post-embolization) was 2.57 ± 0.28 mg and the P50 ([1]; CGA 50 mg/kg, 3 hours following embolization) was 1.22 ± 0.24 mg.
With `CC12CC3CC(C)(C1)CC(N)(C3)C2` [memantine] the “effect on efficacy of low-dose tPA” value ([1]; memantine with low-dose tPA (FIG. 8)) was “increases the efficacy of low-dose tPA: synergy”.
In the case of `O=c1cc(-c2ccccc2)oc2cc(O)c(O)c(O)c12` [Baicalein, 5,6,7 trihydroxyflavone], the P50 ([1]; Baicalein 100 mg/kg SC, 5 minutes following embolization) is reported as 2.85 ± 0.64 mg.
With “tPA: thrombolytic, tissue plasminogen activator; FDA-approved treatment for acute ischemic stroke” the P50 ([1]; low-dose tPA 0.9 mg/kg alone, 60 min following embolization) was 1.25 ± 0.25 mg, the P50 ([1]; tPA 3.3 mg/kg alone, 60 min after embolization (ABHS study)) was 2.69 ± 0.19 mg and the P50 ([1]; tPA 3.3 mg/kg, 1 hour after embolization (CGA study)) was 2.89 ± 0.29 mg. For the same molecule, the P50 ([1]; tPA 3.3 mg/kg, 3 hours after embolization (CGA study)) was 1.54 ± 0.27 mg, the “increase of hemorrhage rate” value ([2]; high dose of tPA 3.3 mg/kg) was 52% and the “increase of hemorrhage rate” value ([2]; low dose of tPA 0.9 mg/kg) was 28%.
In the case of `CC(C)(C)[N+]([O-])=Cc1ccc(S(=O)(=O)O)cc1S(=O)(=O)O.[Na].[Na]` [NXY-059, disodium 2,4-disulfophenyl-N-tert-butylnitrone], the P50 ([1]; NXY-059 100 mg/kg IV, 1 hour following embolization, measured 24 hours after embolization) is reported as 2.81 ± 0.46 mg, the P50 ([1]; NXY-059 100 mg/kg, 3 hours following embolization) is reported as 1.78 ± 0.42 mg and the “increase of P50 over vehicle control” value ([1]; NXY-059 1-100 mg/kg administered following embolization) is reported as 100-134%. The “effect on P50 (dose-response)” value ([1]; NXY-059 doses from 1-100 mg/kg, 1 hour following embolization) was “significantly increased the P50”.
For `CC(=O)[C@H]1CC[C@H]2[C@@H]3CC[C@@H]4C[C@H](OC(=O)CCC(=O)O)CC[C@]4(C)[C@H]3CC[C@]12C` [ABHS, 3-alpha-ol-5-beta-pregnan-20-one hemisuccinate], the Observation ([1]; ABHS 25 mg/kg, 5 min following embolization) was “Sedation”, the Observation [1, 4] was “Sedation” and the P50 [1, 4] was 1.05 ± 0.24 mg. For the same molecule, the Observation [1, 5] was “Sedation”, the P50 [1, 5] was 1.42 ± 0.35 mg and the “effect on therapeutic window for tPA” value ([1]; ABHS with tPA (FIG. 7)) was “increases the therapeutic window for tPA”. The “duration of sedation (loss of righting reflex) after drug injection” value ([1]; IV ABHS administration to rabbits) was 2 to 3 h, the “P50 (duration of ischemia associated with 50% probability of permanent paraplegia)” value [3, 6] was 49.18 ± 10.44 min and the “increase of P50 over control” value [3, 6] was 110%. For the same molecule, the tolerance to ischemia ([3]; ABHS administered 30 min following the start of occlusion) was “increased the tolerance to ischemia” and the persistence of effect ([3]; ABHS injected 5 min following the start of ischemia and again 24 h after ischemia) was “persistent effect of the drug at 48 h”.
Molecule `O=c1c(O)c(-c2ccc(O)c(O)c2)oc2cc(O)ccc12` [Fisetin, fisetin] has a P50 ([1]; Fisetin 50 mg/kg IV, 5 minutes following embolization) of 2.18 ± 0.42 mg.
